pIC50: −log10 of the molar value.

One experiment concerns the target c-Src (Homo sapiens (Human), UniProt P12931). The experiment in a line: c-Src enzyme inhibition (Z-LYTE FRET). The class given is biochemical. How it is done:
(§1) The enzyme inhibitory activities of compounds disclosed herein are determined by FRET using synthetic peptides labelled with both donor and acceptor fluorophores (Z-LYTE, Invitrogen Ltd., Paisley, UK).
(§2) The relevant enzyme (3000 ng/mL or 2000 ng/mL respectively, 2.5 μL) is incubated with the test compound (either 4 μg/mL, 0.4 μg/mL, 0.04 μg/mL, or 0.004 μg/mL, 2.5 μL each) for 2 hr at RT. The FRET peptides (8 μM, 2.5 μL), and appropriate ATP solutions (2.5 μL, 800 μM for c-Src, and 60 μM ATP for Syk) are then added to the enzymes/compound mixtures and incubated for 1 hr. Development reagent (protease, 5 μL) is added for 1 hr prior to detection in a fluorescence microplate reader (Varioskan® Flash, ThermoFisher Scientific).
(§3) In all cases, the site-specific protease cleaves non-phosphorylated peptide only and eliminates the FRET signal. Phosphorylation levels of each reaction are calculated using the ratio of coumarin emission (donor) over fluorescein emission (acceptor), for which high ratios indicate high phosphorylation and low ratios indicate low phosphorylation levels.

The test system of experiment [1] is PBMCs. The experiment can be described thus: LPS-induced TNFα/IL-8 release in PBMC cells. It counts as cell-based. The note with it: Homo sapiens, read-out: IC50 Values for Inhibition of Cytokine Release PBMCs IL-8. On the procedure:
Peripheral blood mononuclear cells (PBMCs) from healthy subjects are separated from whole blood using a density gradient (Lymphoprep, Axis-Shield Healthcare). The PBMCs are seeded in 96 well plates and treated with compounds at the desired concentration for 2 hours before addition of 1 ng/mL LPS (Escherichia Coli O111:B4 from Sigma Aldrich) for 24 hours under normal tissue culture conditions (37° C., 5% CO2). The supernatant is harvested for determination of IL-8 and TN Fa concentrations by sandwich ELISA (Duo-set, R&D systems) and read on the fluorescence microplate reader (Varioskan® Flash, ThermoFisher Scientific).

In a further experiment the target is Syk (Homo sapiens (Human), UniProt P43405). The experiment in a line: Syk enzyme inhibition (Z-LYTE FRET). The class given is biochemical. On the procedure: as §1, §2, §3
Experiment [2] has as its system PBMCs. The experiment in a line: IL-2 and IFN gamma release in CD3/CD28 stimulated PBMC cells. The class given is cell-based. To be noted: Homo sapiens. How it is done:
PBMCs from healthy subjects are separated from whole blood using a density gradient (Lymphoprep, Axis-Shield Healthcare). Cells are added to a 96 well plate pre-coated with a mixture of CD3/CD38 monoclonal antibodies (0.3 μg/mL eBioscience and 3 μg/mL BD Pharmingen respectively). Compound at the desired concentration is then added to the wells and the plate left for 3 days under normal tissue culture conditions. Supernatants are harvested and IL-2 and IFN gamma release determined by Sandwich ELISA (Duo-set, R&D System). The IC50 is determined from the dose response curve.

The next experiment has as its target GSK3α (Homo sapiens (Human), UniProt P49840). The experiment in a line: GSK 3α enzyme inhibition (Z-LYTE FRET, Method 2). It counts as biochemical. On the procedure:
as §1
The inhibitory activities of compounds of the invention against the GSK 3α enzyme isoform (Invitrogen), are evaluated by determining the level of activation/phosphorylation of the target peptide. The GSK3-α protein (500 ng/mL, 2.5 μL) is mixed with the test compound (2.5 μL at either 4 μg/mL, 0.4 μg/mL, 0.04 μg/mL, or 0.004 μg/mL) for 2 hr at RT. The FRET peptide (8 μM, 2.5 μL), which is a phosphorylation target for GSK3α, and ATP (40 μM, 2.5 μL) are then added to the enzyme/compound mixture and the resulting mixture incubated for 1 hr. Development reagent (protease, 5 μL) is added for 1 hr prior to detection in a fluorescence microplate reader (Varioskan® Flash, ThermoFisher Scientific).
as §3

The target in a further experiment is p38 MAPKα (Homo sapiens (Human), UniProt Q16539). The experiment in a line: p38 MAPKα enzyme inhibition (Z-LYTE FRET, Method 2). It counts as biochemical. On the procedure: as §1
p38 MAPKα, sequence (Q16539 whole entry, canonical isoform): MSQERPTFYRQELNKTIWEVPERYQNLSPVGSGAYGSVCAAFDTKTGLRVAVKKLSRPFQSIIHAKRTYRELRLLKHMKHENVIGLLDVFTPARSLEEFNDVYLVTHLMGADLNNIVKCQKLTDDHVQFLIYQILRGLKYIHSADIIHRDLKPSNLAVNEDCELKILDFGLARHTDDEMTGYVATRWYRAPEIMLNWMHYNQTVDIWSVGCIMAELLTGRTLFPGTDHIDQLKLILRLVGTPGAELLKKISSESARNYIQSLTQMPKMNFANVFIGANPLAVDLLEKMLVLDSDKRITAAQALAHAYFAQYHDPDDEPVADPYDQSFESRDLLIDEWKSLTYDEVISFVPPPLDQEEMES
The inhibitory activities of test compounds against the p38 MAPKα isoform (MAPK14: Invitrogen), are evaluated indirectly by determining the level of activation/phosphorylation of the down-stream molecule, MAPKAP-K2. The p38 MAPKα protein (80 ng/mL, 2.5 μL) is mixed with the test compound (2.5 μL of either 4 μg/mL, 0.4 μg/mL, 0.04 μg/mL or 0.004 μg/mL) for 2 hr at RT. […] The mixture is incubated for 1 hr at RT. Development reagent (protease, 5 μL) is added for 1 hr prior to detection in a fluorescence microplate reader (Varioskan® Flash, ThermoFisher Scientific).
as §3

[3] abbreviates: read-out: IC50 Values for Inhibition of Cytokine Release PBMCs IL-2.
Setting [4] is: read-out: IC50 Values for Inhibition of Cytokine Release PBMCs IFNγ.

GSK3α, sequence (P49840 whole entry): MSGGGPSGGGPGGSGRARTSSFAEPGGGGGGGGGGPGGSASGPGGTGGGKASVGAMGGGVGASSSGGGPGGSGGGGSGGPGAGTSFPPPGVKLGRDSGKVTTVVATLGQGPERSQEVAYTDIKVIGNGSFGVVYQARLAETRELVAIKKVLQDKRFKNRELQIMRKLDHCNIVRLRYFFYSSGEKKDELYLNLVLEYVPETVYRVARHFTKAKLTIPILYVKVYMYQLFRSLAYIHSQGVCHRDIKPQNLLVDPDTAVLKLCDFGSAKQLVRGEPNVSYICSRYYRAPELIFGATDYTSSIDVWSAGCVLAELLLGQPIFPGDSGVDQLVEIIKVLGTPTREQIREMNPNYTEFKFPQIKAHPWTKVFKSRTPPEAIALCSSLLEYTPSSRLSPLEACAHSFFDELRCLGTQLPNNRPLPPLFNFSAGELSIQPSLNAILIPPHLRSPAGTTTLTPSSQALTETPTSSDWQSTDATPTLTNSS
c-Src, sequence (P12931 whole entry, looked up): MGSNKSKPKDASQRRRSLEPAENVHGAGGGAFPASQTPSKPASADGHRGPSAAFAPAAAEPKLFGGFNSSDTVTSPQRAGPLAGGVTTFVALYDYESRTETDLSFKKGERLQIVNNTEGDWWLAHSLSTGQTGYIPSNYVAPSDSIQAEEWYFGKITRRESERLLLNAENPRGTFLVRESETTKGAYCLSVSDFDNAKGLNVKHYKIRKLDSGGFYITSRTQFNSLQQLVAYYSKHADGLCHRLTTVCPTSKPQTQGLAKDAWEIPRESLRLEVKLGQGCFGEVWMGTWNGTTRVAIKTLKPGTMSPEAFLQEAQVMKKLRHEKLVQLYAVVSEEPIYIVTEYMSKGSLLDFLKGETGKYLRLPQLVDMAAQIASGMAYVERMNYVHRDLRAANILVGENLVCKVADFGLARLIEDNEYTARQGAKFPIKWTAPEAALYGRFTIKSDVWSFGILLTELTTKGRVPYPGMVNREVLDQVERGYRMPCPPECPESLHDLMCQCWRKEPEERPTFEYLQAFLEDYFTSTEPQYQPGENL

`C#Cc1cccc(Nc2nccc(Oc3ccc(NC(=O)Nc4cc(C(C)C)nn4-c4ccc(C)cc4)c4ccccc34)n2)c1` [Example 10, 1-(4-((2-((3-Ethynylphenyl)amino)pyrimidin-4-yl)oxy)naphthalen-1-yl)-3-(3-isopropyl-1-(p-tolyl)-1H-pyrazol-5-yl)urea]: the results for the pIC50 against c-Src, with PBMCs [1] and at Syk were 6.86, 8.10 and 6.09, respectively.
For `C#Cc1cc(Nc2nccc(Oc3ccc(NC(=O)Nc4cc(C(C)C)nn4-c4ccc(C)cc4)c4ccccc34)n2)cc(OC)c1` [Example 15, 1-(4-((2-((3-Ethynyl-5-methoxyphenyl)amino)pyrimidin-4-yl)oxy)naphthalen-1-yl)-3-(3-isopropyl-1-(p-tolyl)-1H-pyrazol-5-yl)urea], in that order: under 5.80, 8.21 and under 5.80.
On to `COc1cc(Nc2nccc(Oc3ccc(NC(=O)Nc4cc(C(C)C)nn4-c4ccc(C)cc4)c4ccccc34)n2)cc(OCCN2CCOCC2)c1` [Example 17, 1-(3-Isopropyl-1-(P-tolyl)-1H-pyrazol-5-yl)-3-(4-((2-((3-methoxy-5-(2-morpholinoethoxy)-phenyl)amino)pyrimidin-4-yl)oxy)naphthalen-1-yl)urea], for which the pIC50 (in general, −log10 of the IC50, conventionally taken in molar units) was under 6.42 on c-Src; 7.69 with PBMCs [2] (setting [3]); 8.96 with PBMCs [1]; 5.57 at GSK3α; under 6.27 against Syk; under 6.55 against p38 MAPKα.
Regarding `Cc1ccc(-n2nc(C(C)C)cc2NC(=O)Nc2ccc(Oc3ccnc(Nc4cccc(OCCOCCOCCO)c4)n3)c3ccccc23)cc1` [Example 19, 1-(4-((2-((3-(2-(2-(2-Hydroxyethoxy)ethoxy)ethoxy)phenyl)amino)pyrimidin-4-yl)oxy)-naphthalen-1-yl)-3-(3-isopropyl-1-(p-tolyl)-1H-pyrazol-5-yl)urea], the pIC50 at c-Src is 8.30; with PBMCs [1], 8.92; on GSK3α, 5.97; at Syk it was 7.70.
For `COc1cc(Nc2nccc(Oc3ccc(NC(=O)Nc4cc(C(C)C)nn4-c4ccc(C)cc4)c(Cl)c3Cl)n2)cc(S(=O)(=O)C2CC2)c1` [Example 23, 1-(2,3-Dichloro-4-((2-((3-(cyclopropylsulfonyl)-5-methoxyphenyl)amino)pyrimidin-4-yl)-oxy)phenyl)-3-(3-isopropyl-1-(p-tolyl)-1H-pyrazol-5-yl)urea], in that order: 7.28, 8.59, 5.85 and 6.54.
For `COCCOCCOCCOCCOc1cc(Nc2nccc(Oc3ccc(NC(=O)Nc4cc(C(C)C)nn4-c4ccc(C)cc4)c4ccccc34)n2)cc(OC)c1` [Example 29, 1-(4-((2-((3-(2,5,8,11-Tetraoxatridecan-13-yloxy)-5-methoxyphenyl)amino)pyrimidin-4-yl)oxy)naphthalen-1-yl)-3-(3-isopropyl-1-(p-tolyl)-1H-pyrazol-5-yl)urea], the pIC50 against c-Src was 8.22; in the experiment with PBMCs [2] (setting [4]) it was 8.18; in the experiment on PBMCs [2] (setting [3]), 7.13; with PBMCs [1], 8.60; on GSK3α, under 5.00; against Syk, 7.80. The compound also showed a pIC50 on p38 MAPKα of 7.52.
For the compound `COCCOCCOCCOCCOCCOc1cc(Nc2nccc(Oc3ccc(NC(=O)Nc4cc(C(C)C)nn4-c4ccc(C)cc4)c4ccccc34)n2)cc(OC)c1` [Example 30, 1-(4-((2-((3-(2,5,8,11,14-Pentaoxahexadecan-16-yloxy)-5-methoxyphenyl)amino)-pyrimidin-4-yl)oxy)naphthalen-1-yl)-3-(3-isopropyl-1-(p-tolyl)-1H-pyrazol-5-yl)urea], the pIC50 was 8.40 against c-Src; 7.82 in the experiment on PBMCs [2] (setting [4]); 7.56 in the experiment with PBMCs [2] (setting [3]); 8.68 with PBMCs [1]; 5.14 on GSK3α; 7.92 at Syk. This compound had a pIC50 against p38 MAPKα of 7.49.
`COCCOCCOCCOCCOCCOCCOCCOc1cc(Nc2nccc(Oc3ccc(NC(=O)Nc4cc(C(C)C)nn4-c4ccc(C)cc4)c4ccccc34)n2)cc(OC)c1` [Example 32, 1-(4-((2-((3-(2,5,8,11,14,17,20-Heptaoxadocosan-22-yloxy)-5-methoxyphenyl)amino)-pyrimidin-4-yl)oxy)naphthalen-1-yl)-3-(3-isopropyl-1-(p-tolyl)-1H-pyrazol-5-yl)urea]: the pIC50 on c-Src is 8.52; with PBMCs [1] it was 8.85; against GSK3α it was 5.33; against Syk, 8.15; against p38 MAPKα, 7.96.
In the case of `COc1cc(Nc2nccc(Oc3ccc(NC(=O)Nc4cc(C(C)(C)C)nn4-c4ccc(C)cc4)c4ccccc34)n2)cc(SCCCN2CCOCC2)c1` [Example 42, 1-(3-(tert-Butyl)-1-(p-tolyl)-1H-pyrazol-5-yl)-3-(4-((2-((3-methoxy-5-((3-morpholinopropyl)-thio)phenyl)amino)pyrimidin-4-yl)oxy)naphthalen-1-yl)urea], the pIC50 was 7.55 against c-Src; 9.00 in the experiment on PBMCs [2] (setting [4]); 7.23 in the experiment with PBMCs [2] (setting [3]); 8.44 in the experiment with PBMCs [1]; 5.71 against GSK3α; 7.29 against Syk. The pIC50 at p38 MAPKα was 6.54.
In the case of `COc1cc(Nc2nccc(Oc3ccc(NC(=O)Nc4cc(C(C)(C)C)nn4-c4ccc(C)cc4)c4ccccc34)n2)cc(SCCCO)c1` [Example 48, 1-(3-(tert-Butyl)-1-(p-tolyl)-1H-pyrazol-5-yl)-3-(4-((2-((3-((3-Hydroxypropyl)thio)-5-methoxyphenyl)amino)pyrimidin-4-yl)oxy)naphthalen-1-yl)urea], the pIC50 in the experiment on PBMCs [2] (setting [3]) was 7.31; with PBMCs [1] it was 8.52; on GSK3α, 5.69; against Syk, 7.43; against p38 MAPKα, 6.71.
For the compound `COc1cc(Nc2nccc(Oc3ccc(NC(=O)Nc4cc(C(C)(C)C)nn4-c4ccc(C)cc4)c4ccccc34)n2)cc(OCCOCCOCCN(C)C)c1` [Example 57, 1-(3-(tert-Butyl)-1-(p-tolyl)-1H-pyrazol-5-yl)-3-(4-((2-((3-(2-(2-(2-(dimethylamino)ethoxy)ethoxy)ethoxy)-5-methoxyphenyl)amino)pyrimidin-4-yl)oxy)naphthalen-1-yl)urea], the pIC50 is 8.15 against c-Src; 8.85 in the experiment on PBMCs [2] (setting [4]); 7.84 in the experiment with PBMCs [2] (setting [3]); 9.05 in the experiment with PBMCs [1]; 5.71 at GSK3α; 8.10 against Syk.
Turning to `COCCOCCOc1cc(Nc2nccc(Oc3ccc(NC(=O)Nc4cc(C(C)(C)C)nn4-c4ccc(C)cc4)c4ccccc34)n2)cc(OC)c1` [Example 60, 1-(3-(tert-Butyl)-1-(p-tolyl)-1H-pyrazol-5-yl)-3-(4-((2-((3-methoxy-5-(2-(2-methoxyethoxy)ethoxy)phenyl)amino)pyrimidin-4-yl)oxy)naphthalen-1-yl)urea], the pIC50 at c-Src is 7.77; in the experiment with PBMCs [2] (setting [4]), 8.52; with PBMCs [2] (setting [3]), 7.14; in the experiment with PBMCs [1] it was 8.66; against GSK3α, under 5.00; on Syk, 7.52.
